Assay results taken from a compilation of properties of binary mixtures (doi:10.1016/j.molliq.2020.112644).

Test: xn = mol fraction of the nth substance listed
Settings: 100 kPa, x2 = 0.571

O=C1c2ccccc2C(=O)C1(O)O + CCCC[N+](CCCC)(CCCC)CCCC.O=S(=O)([O-])O
Settings | electrical conductivity [S/m] | speed of sound [m/s] | viscosity [mPa·s]
293.15 K | – | 2074.6 | –
298.15 K | – | 2026.2 | –
303.15 K | – | 1974.8 | –
308.15 K | 0.0001 | 1920.7 | –
313.15 K | 0.0002 | 1859 | –
318.15 K | 0.0003 | 1802.5 | –
323.15 K | 0.0006 | 1740.4 | 48000
333.15 K | 0.0018 | 1629.2 | 15800
338.15 K | – | – | 11000
